From patent US20210085244A1, “WRIST RIGIDITY ASSESSMENT DEVICE AND METHOD FOR IDENTIFYING A CLINICALLY EFFECTIVE DOSE” (INESC TEC- INSTITUTO DE ENGENHARIA DE SISTEMAS …, priority 2015, published 2021)

Test system: Parkinson's Disease (PD) patients
Assay: Levodopa level medication test: UPDRS rigidity score and wrist rigidity index by wearable angular velocity sensor
Format: in vivo
Conditions: for UPDRS: motor classification for Rigidity & Rest Tremor (0 to 4); for Rigidity label (Avg): average, higher values = lower rigidity; for Rigidity label: higher index values correspond to lower perceived wrist rigidity
Text: FIG. 6: angular velocity data of a wrist rigidity assessment recorded using a device according to an embodiment of the present disclosure for a first subject for a period of time (a) without levodopa and (b) with a clinically effective dosage regime of levodopa. Also pictured are values of a rigidity index (label) calculated according to the present disclosure. Higher index values correspond to lower perceived wrist rigidity. FIG. 7: angular velocity data of a wrist rigidity assessment recorded using a device according to an embodiment of the present disclosure for a second subject for a period of time (a) without levodopa and (b) with a clinically effective dosage regime of levodopa. Also pictured are values of a rigidity index (label) calculated according to the present disclosure. Higher index values correspond to lower perceived wrist rigidity. Levodopa is an amino acid precursor of dopamine with antiparkinsonian properties. Levodopa is a prodrug that is converted to dopamine by DOPA decarboxylase and can cross the blood-brain barrier. Two patients (person and person) were subjected to a Levodopa level medication test where an experienced neurologist evaluates the subjective Unified PD Rating Scale (UPDRS) motor semi-quantitative classification for Rigidity & Rest Tremor (0 to 4) for a baseline (no levodopa) and in steps of increasing levodopa dosages until a UPDRS of 0 is achieved. This is the dosage as prescribed to the patient. At this dosage, wrist rigidity was evaluated as presently disclosed. As described above, higher index values correspond to lower perceived wrist rigidities. See also FIG. 6-7. A threshold of a rigidity measure according to the present disclosure, for example of 70% or 80%, can thus be used to objectively identify a clinically effective dosage regime. Furthermore, a threshold of a rigidity measure according to the present disclosure can also be used to identify a clinically effective dosage regime which also minimizes the risk of side effects.

N[C@@H](Cc1ccc(O)c(O)c1)C(=O)O [Levodopa]
UPDRS (Subject 1, with clinically effective dosage of levodopa, baseline without levodopa 3): 0
Rigidity label (Avg) (Subject 1, with levodopa, baseline without levodopa 46.9): 74.3%
Rigidity label (Subject 1, with levodopa, baseline without levodopa 40-50): 70-80%
UPDRS (Subject 2, with clinically effective dosage of levodopa, baseline without levodopa 2): 0
Rigidity label (Avg) (Subject 2, with levodopa, baseline without levodopa 48.6): 84.9%
Rigidity label (Subject 2, with levodopa, baseline without levodopa 50): 80-90%
